Measured values reported in US9000023B2, “Disubstituted phthalazine hedgehog pathway antagonists” (Eli Lilly and Company, priority 2009, dated 2015).
Structures can show the parent of a compound that is named as a salt.

Assays:
Gli1 in Daoy cells = assay: Functional assay for measuring the inhibition of Gli1 in Daoy cells (bDNA assay); type: cell-based; conditions: Homo sapiens; Daoy cells stimulated with Shh conditioned media, 24 hours with compound, Gli1 transcript by bDNA luminescence
Procedure: All ligands, solvents, and reagents employed in the following assay are readily available from commercial sources or can be readily prepared by one skilled in the art. Biological activity is determined using a functional assay in Daoy neuronal cancer cells and measures levels of Gli1 ribonucleic acid via a bDNA (branched deoxyribonucleic acid) assay system (Panomics, Inc., Fremont, Calif.). Gli was originally discovered in a Glioblastoma cell line and encodes a zinc finger protein that is activated by Shh signaling. The maximum response is obtained by inducing Gli1 transcription in the Daoy cells with conditioned medium (human embryonic kidney, HEK-293 cells stably expressing recombinant Shh) for 24 hours and then measuring the amount of stimulated Gli1 transcript. […] The bDNA assay system utilizes the technology of branched-chain DNA to allow amplification of a target ribonucleic acid (transcript). […] The addition of a chemilumigenic substrate during the amplification step allows for detection using luminescence. […] The cells are removed from the T225-flasks using trypsin ethylenediaminetetraacetic acid (EDTA), centrifuged, resuspended in media, and then counted. […] The signal is quantified by reading the plates on a Perkin Elmer Envision reader detecting luminescence. […]

CYP3A4 = CYP3A4 (Homo sapiens, UniProt P08684); assay: CYP3A4 Inhibition Assay (human liver microsomes, midazolam substrate); conditions: pH 7.4, probe midazolam (5 μM; formation of 1-OH-midazolam)
Chain of CYP3A4 (P08684 whole entry): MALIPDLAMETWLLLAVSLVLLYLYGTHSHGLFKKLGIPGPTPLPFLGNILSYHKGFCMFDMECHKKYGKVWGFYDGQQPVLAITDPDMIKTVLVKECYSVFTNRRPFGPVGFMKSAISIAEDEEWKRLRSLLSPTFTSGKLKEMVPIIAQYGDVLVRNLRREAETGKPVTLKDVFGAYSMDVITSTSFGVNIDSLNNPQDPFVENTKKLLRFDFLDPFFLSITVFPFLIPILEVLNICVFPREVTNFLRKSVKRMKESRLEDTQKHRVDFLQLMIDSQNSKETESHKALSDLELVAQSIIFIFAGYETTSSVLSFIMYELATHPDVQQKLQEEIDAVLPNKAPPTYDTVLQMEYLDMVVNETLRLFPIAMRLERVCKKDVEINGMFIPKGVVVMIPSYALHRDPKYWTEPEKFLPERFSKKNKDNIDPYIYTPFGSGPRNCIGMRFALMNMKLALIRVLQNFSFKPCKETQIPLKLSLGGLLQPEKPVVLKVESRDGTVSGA

IC50 (Gli1 in Daoy cells): ~2.4 nM
inhibition at 3 min, 10 μM (CYP3A4): 13.5%
Compound: CN(C(=O)c1ccc(F)cc1C(F)(F)F)C1CCN(c2nnc(-c3ccnn3C)c3ccccc23)CC1 [Example 1a, 4-Fluoro-N-methyl-N-(1-(4-(1-methyl-1H-pyrazol-5-yl)phthalazin-1-yl)piperidin-4-yl)-2-(trifluoromethyl)benzamide hydrochloride]
